Experimental data: patent publication US20260124214A1, “HETEROCYCLIC COMPOUNDS FOR USE IN THE TREATMENT OF CANCER” (ARTIOS PHARMA LIMITED, priority 2021, published 2026)
Counter-ions that a name gives are not always drawn.

Target: T1, Human Polθ polymerase domain (aa1820-2590) (Homo sapiens, UniProt O75417)
T1 construct: Human Polθ polymerase domain (aa1820-2590) was expressed in E. Coli; made in house; host or cells: E. coli
T1 sequence (O75417 1820-2590): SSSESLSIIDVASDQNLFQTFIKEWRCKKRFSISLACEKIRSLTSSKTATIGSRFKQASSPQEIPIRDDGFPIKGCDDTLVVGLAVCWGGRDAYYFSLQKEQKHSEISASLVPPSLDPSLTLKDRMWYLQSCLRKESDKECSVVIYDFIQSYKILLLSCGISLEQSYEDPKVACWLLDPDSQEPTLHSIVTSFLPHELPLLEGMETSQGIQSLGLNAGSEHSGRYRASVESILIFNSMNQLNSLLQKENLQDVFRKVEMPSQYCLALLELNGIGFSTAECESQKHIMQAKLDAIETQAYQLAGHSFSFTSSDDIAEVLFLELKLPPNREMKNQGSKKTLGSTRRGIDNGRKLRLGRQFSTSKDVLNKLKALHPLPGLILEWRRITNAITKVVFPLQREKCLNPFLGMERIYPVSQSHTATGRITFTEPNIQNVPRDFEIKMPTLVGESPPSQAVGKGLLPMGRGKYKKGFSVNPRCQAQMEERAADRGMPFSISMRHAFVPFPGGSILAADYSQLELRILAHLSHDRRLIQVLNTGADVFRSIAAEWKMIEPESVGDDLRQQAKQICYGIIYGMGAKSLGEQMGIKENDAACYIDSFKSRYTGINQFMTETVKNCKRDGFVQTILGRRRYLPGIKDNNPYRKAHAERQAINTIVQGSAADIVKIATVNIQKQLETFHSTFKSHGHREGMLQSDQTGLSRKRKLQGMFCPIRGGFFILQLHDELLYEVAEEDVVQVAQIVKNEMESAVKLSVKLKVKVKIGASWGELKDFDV
Assay: Polθ Polymerase Domain WT KI Assay (PicoGreen)
Type: biochemical
Settings: 100 nM DNA substrate, 0.156 nM Polθ, initial rates vs inhibitor concentration
Outline: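 E. coli-expressed human Polθ polymerase domain (aa1820-2590) on annealed DNA II Short/Long primer-template (1.2:1), in 25 mM Tris pH 7.5, NaCl, 5% glycerol, 0.01% Triton X-100, 0.1 mg/ml BSA, 1 mM DTT, 1% DMSO. EDTA-quenched timepoints to 180 min, PicoGreen fluorescence. Initial rates vs inhibitor concentration fitted four-parameter for KI.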

Row | Compound | Ki
1 | Cc1cc(C(F)(F)F)cc(N2C(=O)C[C@@H]3CN(CCN4CCN[C@@H](C)C4)c4c(C)cccc4N(C)C(=O)[C@H]32)n1 [Example 57, (3aR,11aS)-6,10-Dimethyl-1-(6-methyl-4-(trifluoromethyl)pyridin-2-yl)-5-(2-((S)-3-methylpiperazin-1-yl)ethyl)-1,3a,4,5,10,11a-hexahydro-2H-benzo[b]pyrrolo[2,3-f][1,4]diazocine-2,11(3H)-dione dihydrochloride] | 0.564 nM
2 | Cc1cc(C(F)(F)F)cc(N2C(=O)C[C@@H]3CN(CCN4CCN(S(C)(=O)=O)CC4)c4c(C)cccc4N(C)C(=O)[C@H]32)n1 [Example 67, (3aR,11aS)-6,10-Dimethyl-1-(6-methyl-4-(trifluoromethyl)pyridin-2-yl)-5-(2-(4-(methylsulfonyl)piperazin-1-yl)ethyl)-1,3a,4,5,10,11a-hexahydro-2H-benzo[b]pyrrolo[2,3-f][1,4]diazocine-2,11(3H)-dione] | 0.598 nM
3 | Cc1cc(C(F)(F)F)cc(N2C(=O)C[C@@H]3CN(CCN4C[C@H]5C[C@@H]4CN5)c4c(C)cccc4N(C)C(=O)[C@H]32)n1 [Example 58, (3aR,11aS)-5-(2-((1R,4R)-2,5-Diazabicyclo[2.2.1]heptan-2-yl)ethyl)-6,10-dimethyl-1-(6-methyl-4-(trifluoromethyl)pyridin-2-yl)-1,3a,4,5,10,11a-hexahydro-2H-benzo[b]pyrrolo[2,3-f][1,4]diazocine-2,11(3H)-dione dihydrochloride] | 0.777 nM
4 | Cc1cc(C(F)(F)F)cc(N2C(=O)C[C@@H]3CN(CCO)c4c(F)cccc4N(C)C(=O)[C@H]32)n1 [Example 18, (3aR,11aS)-6-Fluoro-5-(2-hydroxyethyl)-10-methyl-1-(6-methyl-4-(trifluoromethyl)pyridin-2-yl)-1,3a,4,5,10,11a-hexahydro-2H-benzo[b]pyrrolo[2,3-f][1,4]diazocine-2,11(3H)-dione] | 16.7 nM
5 | Cc1cc(C(F)(F)F)cc(N2C(=O)C[C@@H]3CN(CCN4CCN(C)C[C@@H]4CO)c4c(C)cccc4N(C)C(=O)[C@H]32)n1 [Example 65, (3aR,11aS)-5-(2-((R)-2-(Hydroxymethyl)-4-methylpiperazin-1-yl)ethyl)-6,10-dimethyl-1-(6-methyl-4-(trifluoromethyl)pyridin-2-yl)-1,3a,4,5,10,11a-hexahydro-2H-benzo[b]pyrrolo[2,3-f][1,4]diazocine-2,11(3H)-dione dihydrochloride] | 1.38 nM
6 | CCN1C(=O)[C@@H]2[C@H](CC(=O)N2c2cc(C(F)(F)F)cc(C)n2)CN(CCN2CCN(C)CC2)c2c(Cl)cccc21 [Example 146, (3aR,11aS)-6-Chloro-10-ethyl-1-(6-methyl-4-(trifluoromethyl)pyridin-2-yl)-5-(2-(4-methylpiperazin-1-yl)ethyl)-1,3a,4,5,10,11a-hexahydro-2H-benzo[b]pyrrolo[2,3-f][1,4]diazocine-2,11(3H)-dione] | 7.01 nM
7 | Cc1cc(C(F)(F)F)cc(N2C(=O)C[C@@H]3CN(CCN4CCNCC4)c4c(C)cccc4N(C)C(=O)[C@H]32)n1 [Example 16, (3aR,11aS)-6,10-Dimethyl-1-(6-methyl-4-(trifluoromethyl)pyridin-2-yl)-5-(2-(piperazin-1-yl)ethyl)-1,3a,4,5,10,11a-hexahydro-2H-benzo[b]pyrrolo[2,3-f][1,4]diazocine-2,11(3H)-dione] | 1.2 nM
8 | Cc1cc(C(F)(F)F)cc(N2C(=O)C[C@@H]3CNc4c(C)cccc4N(C)C(=O)[C@H]32)n1 [Example 3, (3aR,11aS)-6,10-Dimethyl-1-(6-methyl-4-(trifluoromethyl)pyridin-2-yl)-1,3a,4,5,10,11a-hexahydro-2H-benzo[b]pyrrolo[2,3-f][1,4]diazocine-2,11(3H)-dione] | 0.927 nM
9 | Cc1cc(C(F)(F)F)cc(N2C(=O)C[C@@H]3CN(CCN4CCN(C)[C@@H](CO)C4)c4c(C)cccc4N(C)C(=O)[C@H]32)n1 [Example 63, (3aR,11aS)-5-(2-((R)-3-(Hydroxymethyl)-4-methylpiperazin-1-yl)ethyl)-6,10-dimethyl-1-(6-methyl-4-(trifluoromethyl)pyridin-2-yl)-1,3a,4,5,10,11a-hexahydro-2H-benzo[b]pyrrolo[2,3-f][1,4]diazocine-2,11(3H)-dione] | 1.07 nM
10 | Cc1cc(C(F)(F)F)cc(N2C(=O)C[C@@H]3CNc4c(F)cccc4N(C)C(=O)[C@H]32)n1 [Example 1, (3aR,11aS)-6-Fluoro-10-methyl-1-(6-methyl-4-(trifluoromethyl)pyridin-2-yl)-1,3a,4,5,10,11a-hexahydro-2H-benzo[b]pyrrolo[2,3-f][1,4]diazocine-2,11(3H)-dione] | 15.3 nM
11 | Cc1cc(C(F)(F)F)cc(N2C(=O)C[C@@H]3CN(CCN4CCOCC4)c4c(C)cccc4NC(=O)[C@H]32)n1 [Example 147, (3aR,11aS)-6-Methyl-1-(6-methyl-4-(trifluoromethyl)pyridin-2-yl)-5-(2-morpholinoethyl)-1,3a,4,5,10,11a-hexahydro-2H-benzo[b]pyrrolo[2,3-f][1,4]diazocine-2,11(3H)-dione] | 3.62 nM
12 | Cc1cc(C(F)(F)F)cc(N2C(=O)C[C@@H]3CN(C[C@H]4CCNC4)c4c(Cl)cccc4N(C)C(=O)[C@H]32)n1 [Example 100, (3aR,11aS)-6-Chloro-10-methyl-1-(6-methyl-4-(trifluoromethyl)pyridin-2-yl)-5-(((S)-pyrrolidin-3-yl)methyl)-1,3a,4,5,10,11a-hexahydro-2H-benzo[b]pyrrolo[2,3-f][1,4]diazocine-2,11(3H)-dione hydrochloride] | 1.75 nM
13 | Cc1cc(C(F)(F)F)cc(N2C(=O)C[C@@H]3CN(CCN4CC[C@H](O)C4)c4c(Cl)cccc4N(C)C(=O)[C@H]32)n1 [Example 32, (3aR,11aS)-6-Chloro-5-(2-((S)-3-hydroxypyrrolidin-1-yl)ethyl)-10-methyl-1-(6-methyl-4-(trifluoromethyl)pyridin-2-yl)-1,3a,4,5,10,11a-hexahydro-2H-benzo[b]pyrrolo[2,3-f][1,4]diazocine-2,11(3H)-dione] | 6.78 nM
14 | Cc1cc(C(F)(F)F)cc(N2C(=O)C[C@@H]3CN(c4ccc5ccn(C)c5n4)c4c(F)cccc4N(C)C(=O)[C@H]32)n1 [Example 143, (3aR,11aS)-6-Fluoro-10-methyl-5-(1-methyl-1H-pyrrolo[2,3-b]pyridin-6-yl)-1-(6-methyl-4-(trifluoromethyl)pyridin-2-yl)-1,3a,4,5,10,11a-hexahydro-2H-benzo[b]pyrrolo[2,3-f][1,4]diazocine-2,11(3H)-dione] | 97 nM
15 | Cc1cc(C(F)(F)F)cc(N2C(=O)C[C@@H]3CN(CCN4CCN(C)C[C@H]4C)c4c(C)cccc4N(C)C(=O)[C@H]32)n1 [Example 48, (3aR,11aS)-5-(2-((R)-2,4-Dimethylpiperazin-1-yl)ethyl)-6,10-dimethyl-1-(6-methyl-4-(trifluoromethyl)pyridin-2-yl)-1,3a,4,5,10,11a-hexahydro-2H-benzo[b]pyrrolo[2,3-f][1,4]diazocine-2,11(3H)-dione dihydrochloride] | 0.307 nM
16 | Cc1cc(C(F)(F)F)cc(N2C(=O)C[C@@H]3CN(Cc4ccncc4)c4c(Cl)cccc4N(C)C(=O)[C@H]32)n1 [Example 94, (3aR,11aS)-6-Chloro-10-methyl-1-(6-methyl-4-(trifluoromethyl)pyridin-2-yl)-5-(pyridin-4-ylmethyl)-1,3a,4,5,10,11a-hexahydro-2H-benzo[b]pyrrolo[2,3-f][1,4]diazocine-2,11(3H)-dione] | 3.29 nM
17 | Cc1cc(C(F)(F)F)cc(N2C(=O)C[C@@H]3CN(C[C@H]4CCNC4)c4c(C)cccc4N(C)C(=O)[C@H]32)n1 [Example 104, (3aR,11aS)-6,10-Dimethyl-1-(6-methyl-4-(trifluoromethyl)pyridin-2-yl)-5-(((S)-pyrrolidin-3-yl)methyl)-1,3a,4,5,10,11a-hexahydro-2H-benzo[b]pyrrolo[2,3-f][1,4]diazocine-2,11(3H)-dione hydrochloride] | 2.95 nM
18 | Cc1cc(C(F)(F)F)cc(N2C(=O)C[C@@H]3CN(CC4COCCN4C)c4c(Cl)cccc4N(C)C(=O)[C@H]32)n1 (single isomer, unassigned) [Example 119b] | 1.08 nM
19 | Cc1cc(C(F)(F)F)cc(N2C(=O)C[C@@H]3CN(C[C@@H]4CCCN4)c4c(Cl)cccc4N(C)C(=O)[C@H]32)n1 (racemic) [Example 107b, (3aR,11aS)-6-Chloro-10-methyl-1-(6-methyl-4-(trifluoromethyl)pyridin-2-yl)-5-(((S/R)-pyrrolidin-2-yl)methyl)-1,3a,4,5,10,11a-hexahydro-2H-benzo[b]pyrrolo[2,3-f][1,4]diazocine-2,11(3H)-dione] | 5.21 nM
